These results are taken from patent US20230181614A1, “ADMINISTRATION OF CITICOLINE TO IMPROVE COGNITIVE PERFORMANCE, ATTENTIONAL PERFORMANCE, AND MOTOR FUNCTION” (KYOWA HAKKO BIO CO., LTD., priority 2014, published 2023).

Several values for one entry are separate records, joined by “and”; a condition that tells them apart may be missing. Equal entries are not always repeated.

For experiment [1], the system named is Healthy subjects, ages 13-18. In words: Conner-Wells Self-Report Scale (L) (Conners). It counts as in vivo, human. Particulars: for Conners Score, Mean: V3-V1. An excerpt:
Study participants were screened by telephone prior to study enrollment. Healthy subjects, ages 13-18, with no significant medical conditions and no history of co-morbid psychiatric disorder, current Axis I or II diagnosis, or previous participation in a pharmacotherapeutic trial, were selected. Use of any psychotropic medication or any previous head injury resulting in loss of consciousness for 5 or more minutes were used as exclusion criteria. While no participant met criteria for a neuropsychiatric disorder at enrollment, clinical assessments were still completed throughout the study to evaluate changes in mood state. In addition, self-reports of sleep habits, lifestyle, and exercise routines were also administered at baseline as well as at each study visit to assess changes in health habits during study participation. Following the completion of Visit 1 assessment, participants were given their 28-day supply of citicoline (250 mg or 500 mg) or placebo, which was randomly assigned. They were instructed to take one capsule a day every day for the next 28 days. Visit 2 occurred fourteen days after Visit 1. At Visit 2, the remaining study pills were counted and participant dosage calendars were checked to ensure compliance with the protocol. Additional neuropsychological measures and clinical assessments were administered during this visit. Participants returned for Visit 3 fourteen days later, on the 28th day of their study participation. The pill bottle and the dosage calendar were collected from each participant. Urine and blood were again obtained. Participants also participated in similar clinical and neuropsychological testing and clinical measures that were given during visit 1. The Conners is a self-report questionnaire assessing a range or problem behaviors in children, including family problems, emotional problems, conduct problems, cognitive problems/inattention, anger control problems, hyperactivity, ADHD Index, and DSM-IV symptom subscales. The scale was administered at the first and third visits to assess presence or absence of a range of problem behaviors.

Experiment [2] has as its system Healthy subjects, ages 13-18. In words: Finger Tap Test (motor speed and control). Type of experiment: in vivo, human. The settings on record: for V3-V1 Finger Tap Test Mean Dominant Hand, Mean / V3-V1 Finger Tap Test Mean Non-Dominant Hand, Mean: Visit difference score; for Finger Tap Test Mean Dominant Hand V3, Mean / Finger Tap Test Mean Non-Dominant Hand V3, Mean: Visit 3; for Finger Tap Test Mean Dominant Hand, Mean / Finger Tap Test Mean Non-Dominant Hand, Mean: 250 mg/day. The protocol:
The citicoline-treated group (N=51) were administered 250 mg/day (N=24) or 500 mg/day (N=27). Three finger tap tests were administered over a period of 28 days to measure motor speed and control. Results are expressed as mean ± SD. Statistical analysis was performed using Student’s t test. The p<0.05 was considered statistically significant. Study participants were screened by telephone prior to study enrollment. Healthy subjects, ages 13-18, with no significant medical conditions and no history of co-morbid psychiatric disorder, current Axis I or II diagnosis, or previous participation in a pharmacotherapeutic trial, were selected. Use of any psychotropic medication or any previous head injury resulting in loss of consciousness for 5 or more minutes were used as exclusion criteria. While no participant met criteria for a neuropsychiatric disorder at enrollment, clinical assessments were still completed throughout the study to evaluate changes in mood state. In addition, self-reports of sleep habits, lifestyle, and exercise routines were also administered at baseline as well as at each study visit to assess changes in health habits during study participation. Following the completion of Visit 1 assessment, participants were given their 28-day supply of citicoline (250 mg or 500 mg) or placebo, which was randomly assigned. They were instructed to take one capsule a day every day for the next 28 days. Visit 2 occurred fourteen days after Visit 1. At Visit 2, the remaining study pills were counted and participant dosage calendars were checked to ensure compliance with the protocol. Additional neuropsychological measures and clinical assessments were administered during this visit. Participants returned for Visit 3 fourteen days later, on the 28th day of their study participation. The pill bottle and the dosage calendar were collected from each participant. Urine and blood were again obtained. Participants also participated in similar clinical and neuropsychological testing and clinical measures that were given during visit 1. The finger tap test is used to measure motor speed and control. It is a common assessment measure administered by neuropsychologists to detect cognitive impairment. During the finger tap test, the participant is instructed to use his/her index finger to press a lever attached to a mechanical counter as many times as s/he can within the designated time period. The participant is instructed to move only their index finger, not the entire hand. The same process is completed using the index finger of the dominant and non-dominant hand. The finger tap test was administered at each of the three visits.

For the compound `C[N+](C)(C)CCOP(=O)(O)OP(=O)([O-])OC[C@H]1O[C@@H](n2ccc(N)nc2=O)[C@H](O)[C@@H]1O` [citicoline, Cytidine 5′-diphosphocholine], the “Conners, Mean” value in experiment [1] (250 mg/day, V1 (baseline)) is 49.26; in experiment [1] (250 mg/day, V3 (day 28)), 49.52 and 46.52; in experiment [1] (500 mg/day, V1 (baseline)), 43.83; in experiment [1] (500 mg/day, V3 (day 28)), 39.54. In addition, the “Conners Score, Mean” value in experiment [1] (250 mg/day) is reported as -2.74; in experiment [1] (500 mg/day), -4.29. For the same compound, the figures for the “V3-V1 Finger Tap Test Mean Dominant Hand, Mean” value in experiment [2] (250 mg/day group) and in experiment [2] (500 mg/day group) were 4.87 and 2.61, respectively. Moreover, the results for the “V3-V1 Finger Tap Test Mean Non-Dominant Hand, Mean” value in experiment [2] (250 mg/day group) and in experiment [2] (500 mg/day group) were 2.49 and 2.21, respectively. Also, the “Finger Tap Test Mean Dominant Hand V3, Mean” value in experiment [2] (250 mg/day group) is given as 51.59; in experiment [2] (500 mg/day group), 52.05. Also, the “Finger Tap Test Mean Non-Dominant Hand V3, Mean” value in experiment [2] (250 mg/day group) is given as 47.01; in experiment [2] (500 mg/day group) it was 47.10. Also, the “Finger Tap Test Mean Dominant Hand, Mean” value is listed as 46.72 in experiment [2] (V1 (baseline)) and 51.59 in experiment [2] (V3 (day 28)). Moreover, the results for the “Finger Tap Test Mean Non-Dominant Hand, Mean” value in experiment [2] (V1 (baseline)) and in experiment [2] (V3 (day 28)) were 44.52 and 47.01, respectively. Also, the “Finger Tap Test Mean Dominant Hand V1, Mean” value in experiment [2] (500 mg/day group, Visit 1) is reported as 49.44. Besides, in experiment [2] (500 mg/day group, Visit 1), the “Finger Tap Test Mean Non-Dominant Hand V1, Mean” value amounted to 44.89.
